In US11390664B2, “Antibodies that potently neutralize hepatitis B virus and uses thereof” (priority 2015, dated 2022):

Experiments:
HBV (genotype D) = experiment: HBV spreading in humanized uPA/SCID mice, treatment from 3 weeks post-infection; assay type: in vivo, uPA/SCID mice repopulated with primary human hepatocytes; conditions: for cccDNA measurements versus mice sacrificed 3 weeks post HBV infection: treated from week 3 to week 9 post-infection
[1] = test system: antigenic loop region of the HBsAg; assay type: binding, hepatitis B virus; conditions: antibody at 1 μg/ml
HBV viral particles = experiment: Western blot on HBV viral particles under reducing conditions; assay type: binding, hepatitis B virus
Excerpt: Ab4 is a comparative antibody, which is also reactive against the antigenic loop.

[2] = test system: 19 different HBsAg genotype D mutants; assay type: binding, hepatitis B virus; conditions: 5 μg/ml
[3] = test system: HBsAg serotypes (adw, ady and ayw); experiment: ELISA binding to HBsAg serotypes; parameters: species or system hepatitis B virus; conditions: similar and low EC50 values
HBV = HBV neutralization on differentiated HepaRG cells; assay type: cell-based, hepatitis B virus; conditions: HBC34 result at 5 and 0.5 μg/ml, antibodies tested at 5, 0.5 and 0.05 μg/ml
Protocol: At the end of the incubation, the cells were washed and further cultivated. Medium was changed every 3 days. Infection was detected by measuring in enzyme-linked immunosorbent assay (ELISA) the levels of hepatitis B surface antigen (HBsAg) and hepatitis B e antigen (HBeAg) secreted into the culture supernatant from day 7 to 11 post-infection and by detecting HBcAg staining in an immunofluorescence assay.

HBsAg (adw subtype) = experiment: ELISA binding of HBC34 variants to HBsAg adw antigen; parameters: species or system hepatitis B virus; conditions: Example 11, 18 variants, FIG. 21

Row | Molecule | cccDNA measurements versus mice sacrificed 3 weeks post HBV infection (HBV (genotype D)) | decrease of levels of circulating HBsAg (HBV (genotype D); baseline to week 6 of treatment (week 9 post-infection)) [log] | binding to three additional peptides (SEQ ID NO 53, 54, 55) [1] | reactivity in western blot (HBV viral particles) | number of the 19 HBsAg mutants bound [2] | binding to three HBsAg serotypes (adw, ady and ayw) [3] | neutralization of HBV infection (HBV) | effect of mutation(s) on binding to HBsAg compared with parental HBC34 (HBsAg (adw subtype))
1 | C=C1[C@H](CO)[C@@H](O)C[C@@H]1n1cnc2c(=O)[nH]c(N)nc21 [entecavir, reference compound] | did not differ significantly |  |  |  |  |  |  | 
2 | HBC34: IgG1-type fully human monoclonal antibody against HBsAg antigenic loop; VH SEQ ID NO: 41, VL SEQ ID NO: 42 | did not differ significantly | > 1 | recognized with a lower signal | does not react at all | 18 | binds with high affinity | neutralized completely | 
3 | HBC34-v2: HBC34 variant, W107F in the CDR3 of the VH and W107A in the CDR3 of the VL (antibody, V domains shown) VH: ELQLVESGGGWVQPGGSQRLSCAASGRIFRSFYMSWVRQAPGKGLEWVATINQDGSEKLYVDSVKGRFTISRDNAKNSLFLQMNNLRVEDTAVYYCAAFSGNSGGMDVWGQGTTVSVSS VL: SYELTQPPSVSVSPGQTVSIPCSGDKLGNKNVCWFQHKPGQSPVLVIYEVKYRPSGIPERFSGSNSGNTATLTISGTQAMDEAAYFCQTADSTTVVFGGGTRLTVL |  |  |  |  |  |  |  | completely abolished
